Experimental data as given in patent US8633196B2, “Benzenesulfonamide compounds, method for synthesizing same, and use thereof in medicine as well as in cosmetics” (Galderma Research & Development, priority 2009, dated 2014).
pIC50: −log10 of the molar value. Like-named read-outs stand apart in the source and are kept apart here.

Key:
MMP1 = MMP1 (Homo sapiens (Human), UniProt P03956); test: Selectivity assay, MMP1; assay type: biochemical
MMP3 = MMP3 (Homo sapiens (Human), UniProt P08254); test: Selectivity assay, MMP3; assay type: biochemical
MMP9 = MMP9 (Homo sapiens (Human), UniProt P14780); test: Selectivity assay, MMP9; assay type: biochemical
ADAM9 = ADAM9 (Homo sapiens (Human), UniProt Q13443); test: Selectivity assay, ADAM9; assay type: biochemical
ADAM10 = ADAM10 (Homo sapiens (Human), UniProt O14672); test: Selectivity assay, ADAM10
TACE enzyme [1] = target: T1, TACE enzyme (Homo sapiens (Human), UniProt P78536); test: Enzymatic assay for TACE inhibition (fluorescent substrate); assay type: biochemical
Target sequence in this assay (P78536 215-824 limits assumed): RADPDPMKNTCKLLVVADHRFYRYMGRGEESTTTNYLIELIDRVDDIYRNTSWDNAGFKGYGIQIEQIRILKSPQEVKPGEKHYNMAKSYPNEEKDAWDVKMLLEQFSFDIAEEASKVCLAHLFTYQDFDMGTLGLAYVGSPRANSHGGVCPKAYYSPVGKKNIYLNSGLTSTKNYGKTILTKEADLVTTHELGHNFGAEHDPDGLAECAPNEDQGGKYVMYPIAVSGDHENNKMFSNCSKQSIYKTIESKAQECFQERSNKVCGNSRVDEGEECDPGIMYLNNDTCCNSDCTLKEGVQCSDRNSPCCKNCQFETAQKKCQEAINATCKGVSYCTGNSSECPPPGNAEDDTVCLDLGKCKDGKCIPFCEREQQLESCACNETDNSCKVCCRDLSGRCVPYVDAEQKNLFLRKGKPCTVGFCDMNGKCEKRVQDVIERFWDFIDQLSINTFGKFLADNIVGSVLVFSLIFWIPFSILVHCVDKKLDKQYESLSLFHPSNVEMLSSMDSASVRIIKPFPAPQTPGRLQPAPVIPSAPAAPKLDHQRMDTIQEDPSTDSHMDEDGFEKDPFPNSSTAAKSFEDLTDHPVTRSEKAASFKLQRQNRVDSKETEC

TACE enzyme [2] = target: T1, TACE enzyme; details: WO 00/44709; page 251, table 10, example 61; cited from earlier work
Target sequence in this assay (P78536 whole entry, looked up): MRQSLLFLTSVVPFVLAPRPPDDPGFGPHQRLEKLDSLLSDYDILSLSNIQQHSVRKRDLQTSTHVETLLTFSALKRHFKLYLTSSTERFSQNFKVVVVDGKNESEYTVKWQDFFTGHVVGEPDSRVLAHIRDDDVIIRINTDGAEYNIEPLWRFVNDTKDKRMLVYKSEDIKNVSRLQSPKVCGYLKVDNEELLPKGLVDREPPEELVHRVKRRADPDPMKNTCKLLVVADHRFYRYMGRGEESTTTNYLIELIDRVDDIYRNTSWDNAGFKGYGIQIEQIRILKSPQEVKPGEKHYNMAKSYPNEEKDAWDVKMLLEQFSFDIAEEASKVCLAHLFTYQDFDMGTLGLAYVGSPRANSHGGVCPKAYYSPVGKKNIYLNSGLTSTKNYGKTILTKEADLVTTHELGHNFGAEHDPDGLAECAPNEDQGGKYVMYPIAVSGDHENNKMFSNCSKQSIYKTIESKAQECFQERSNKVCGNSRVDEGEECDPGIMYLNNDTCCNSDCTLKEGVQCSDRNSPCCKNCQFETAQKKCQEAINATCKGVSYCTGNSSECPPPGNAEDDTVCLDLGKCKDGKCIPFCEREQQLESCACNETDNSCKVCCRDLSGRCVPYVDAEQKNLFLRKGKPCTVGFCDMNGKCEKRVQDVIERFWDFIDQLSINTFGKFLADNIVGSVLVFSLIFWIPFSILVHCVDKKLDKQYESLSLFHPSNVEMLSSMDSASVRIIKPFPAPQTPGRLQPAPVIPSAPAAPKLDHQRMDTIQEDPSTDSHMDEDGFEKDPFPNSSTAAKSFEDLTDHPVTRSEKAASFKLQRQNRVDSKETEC

[3] = TACE column of selectivity table; read-out: IC50 (nM) TACE
[4] = enzymatic assay, substrate 40 μM; read-out: IC50-TACE

MMP9, sequence (P14780 94-707, species assumed): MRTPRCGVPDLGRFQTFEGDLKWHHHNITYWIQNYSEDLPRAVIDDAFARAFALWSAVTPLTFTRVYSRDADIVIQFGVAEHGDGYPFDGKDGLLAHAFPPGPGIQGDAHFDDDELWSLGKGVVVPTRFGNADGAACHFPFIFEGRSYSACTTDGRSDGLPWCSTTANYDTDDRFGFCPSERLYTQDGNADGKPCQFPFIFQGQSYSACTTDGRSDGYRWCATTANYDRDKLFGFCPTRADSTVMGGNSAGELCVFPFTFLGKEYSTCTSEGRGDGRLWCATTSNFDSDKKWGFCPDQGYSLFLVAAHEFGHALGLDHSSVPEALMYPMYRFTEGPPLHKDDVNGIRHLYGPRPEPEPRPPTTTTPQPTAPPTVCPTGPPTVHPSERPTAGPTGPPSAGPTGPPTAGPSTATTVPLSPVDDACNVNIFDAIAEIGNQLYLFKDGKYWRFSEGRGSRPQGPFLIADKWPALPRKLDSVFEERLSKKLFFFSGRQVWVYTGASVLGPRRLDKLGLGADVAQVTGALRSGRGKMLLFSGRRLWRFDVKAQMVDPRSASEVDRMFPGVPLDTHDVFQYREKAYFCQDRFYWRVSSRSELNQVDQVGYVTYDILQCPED
MMP3, sequence (P08254 100-477, species assumed): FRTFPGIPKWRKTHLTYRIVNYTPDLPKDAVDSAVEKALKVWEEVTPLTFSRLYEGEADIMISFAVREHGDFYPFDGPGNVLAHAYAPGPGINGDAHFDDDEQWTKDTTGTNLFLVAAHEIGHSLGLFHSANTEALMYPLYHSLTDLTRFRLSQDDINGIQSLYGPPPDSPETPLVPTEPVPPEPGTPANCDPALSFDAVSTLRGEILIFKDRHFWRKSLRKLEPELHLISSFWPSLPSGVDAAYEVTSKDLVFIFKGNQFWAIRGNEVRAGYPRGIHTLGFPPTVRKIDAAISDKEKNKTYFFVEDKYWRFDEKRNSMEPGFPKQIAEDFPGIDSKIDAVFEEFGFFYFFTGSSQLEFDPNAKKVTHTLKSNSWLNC
MMP1, sequence (P03956 100-469, species assumed): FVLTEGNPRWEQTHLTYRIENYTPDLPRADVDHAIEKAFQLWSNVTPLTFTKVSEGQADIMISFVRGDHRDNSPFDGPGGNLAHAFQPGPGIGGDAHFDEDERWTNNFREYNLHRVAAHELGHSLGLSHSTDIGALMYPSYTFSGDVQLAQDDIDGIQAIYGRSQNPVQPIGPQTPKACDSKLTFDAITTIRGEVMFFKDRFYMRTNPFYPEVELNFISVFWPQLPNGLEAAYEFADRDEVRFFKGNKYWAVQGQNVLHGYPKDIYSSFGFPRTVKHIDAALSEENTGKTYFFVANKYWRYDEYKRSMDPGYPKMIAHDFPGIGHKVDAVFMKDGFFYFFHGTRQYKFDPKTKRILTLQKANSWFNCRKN
ADAM10, sequence (O14672 214-748, species assumed): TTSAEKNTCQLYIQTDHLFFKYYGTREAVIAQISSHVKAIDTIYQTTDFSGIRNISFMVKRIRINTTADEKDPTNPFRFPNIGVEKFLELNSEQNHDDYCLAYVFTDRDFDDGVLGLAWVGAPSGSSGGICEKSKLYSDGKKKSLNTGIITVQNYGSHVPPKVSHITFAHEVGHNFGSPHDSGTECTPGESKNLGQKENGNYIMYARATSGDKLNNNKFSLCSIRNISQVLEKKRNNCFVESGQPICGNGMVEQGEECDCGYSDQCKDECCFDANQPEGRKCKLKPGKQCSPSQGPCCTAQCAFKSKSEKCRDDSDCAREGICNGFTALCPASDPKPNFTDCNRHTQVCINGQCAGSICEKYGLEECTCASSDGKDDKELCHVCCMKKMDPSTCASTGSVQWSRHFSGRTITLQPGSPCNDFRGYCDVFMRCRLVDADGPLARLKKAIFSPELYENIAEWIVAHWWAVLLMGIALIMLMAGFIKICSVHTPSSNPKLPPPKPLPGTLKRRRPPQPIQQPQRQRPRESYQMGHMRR
ADAM9, sequence (Q13443 29-819, species assumed): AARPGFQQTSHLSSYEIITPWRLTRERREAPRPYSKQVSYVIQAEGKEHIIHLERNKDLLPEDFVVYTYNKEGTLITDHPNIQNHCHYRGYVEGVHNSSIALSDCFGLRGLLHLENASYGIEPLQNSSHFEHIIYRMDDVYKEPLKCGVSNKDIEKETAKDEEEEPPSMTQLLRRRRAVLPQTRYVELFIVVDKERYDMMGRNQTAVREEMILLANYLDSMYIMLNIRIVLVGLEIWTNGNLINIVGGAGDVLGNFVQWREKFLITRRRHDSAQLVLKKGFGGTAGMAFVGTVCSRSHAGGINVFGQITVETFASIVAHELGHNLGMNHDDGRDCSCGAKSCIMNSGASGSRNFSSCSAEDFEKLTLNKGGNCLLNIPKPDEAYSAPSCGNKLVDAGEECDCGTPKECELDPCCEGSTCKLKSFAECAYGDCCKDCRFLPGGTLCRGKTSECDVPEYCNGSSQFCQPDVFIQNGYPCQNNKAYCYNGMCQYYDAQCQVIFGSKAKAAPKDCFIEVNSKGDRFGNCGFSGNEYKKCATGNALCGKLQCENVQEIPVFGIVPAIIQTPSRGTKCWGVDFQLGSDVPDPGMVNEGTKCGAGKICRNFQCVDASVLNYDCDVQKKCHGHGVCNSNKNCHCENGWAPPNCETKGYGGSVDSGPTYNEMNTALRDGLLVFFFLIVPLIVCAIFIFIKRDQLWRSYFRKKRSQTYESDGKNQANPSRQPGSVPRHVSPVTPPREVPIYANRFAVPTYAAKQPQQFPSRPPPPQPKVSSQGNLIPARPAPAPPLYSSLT

| IC50 (MMP1) [nM] | IC50 (MMP3) [nM] | IC50 (TACE enzyme [1]; [3]) [nM] | % TACE inhibition at 10 μM (TACE enzyme [1]; at 10 μM) [%] | pIC50 (TACE enzyme [1]; [4]) | Compound | further results |
| --- | --- | --- | --- | --- | --- | --- |
| 3940 | 4780 | – | – | – | Cc1cc(COc2ccc(S(=O)(=O)NC[C@@H](C(=O)NO)N3CCN(Cc4ccc(C(F)(F)F)cc4)CC3)cc2)c2ccccc2n1 [Example 20, (S)-N-Hydroxy-3-[4-(2-methylquinolin-4-ylmethoxy)benzenesulfonylamino]-2-[4-(4-trifluoromethylbenzyl)piperazin-1-yl]propionamide] | IC50 (MMP9): > 10000 nM; IC50 (ADAM9): > 10000 nM; pIC50 (ADAM10): < 5.00 |
| 969 | 574 | 16 | 98 | 7.48 | Cc1cc(COc2ccc(S(=O)(=O)NC[C@@H](C(=O)NO)N3CCN(S(=O)(=O)C(C)C)CC3)cc2)c2ccccc2n1 [Example 26, (S)-N-hydroxy-3-[4-(2-methylquinolin-4-ylmethoxy)benzenesulfonylamino]-2-[4-(propane-2-sulfonyl)piperazin-1-yl]propionamide] | – |
| 1170 | 887 | 63 | 97 | 7.20 | Cc1ccc(CN2CCN([C@@H](CNS(=O)(=O)c3ccc(OCc4cc(C)nc5ccccc45)cc3)C(=O)NO)CC2)cc1 [Example 21, (S)-N-hydroxy-2-[4-(4-methylbenzyl)piperazin-1-yl]-3-[4-(2-methylquinolin-4-ylmethoxy)benzenesulfonylamino]propionamide] | – |
| – | – | – | 100 | 7.49 | CC#CCOc1ccc(S(=O)(=O)NC[C@@H](C(=O)NO)N2CCN(S(C)(=O)=O)CC2)cc1 [Example 2, (S)-3-(4-but-2-ynyloxybenzenesulfonylamino)-N-hydroxy-2-(4-methanesulfonylpiperazin-1-yl)propionamide] | – |
| 2300 | 1770 | 41 | 92 | 7.39 | CCN1CCN([C@@H](CNS(=O)(=O)c2ccc(OCc3cc(C)nc4ccccc34)cc2)C(=O)NO)CC1 [Example 19, (S)-2-(4-ethyl-piperazin-1-yl)-N-hydroxy-3-[4-(2-methylquinolin-4-yl-methoxy)benzenesulfonylamino]propionamide] | IC50 (MMP9): > 10000 nM; IC50 (ADAM9): 3050 nM; pIC50 (ADAM10): < 5.00 |
| – | – | – | 100 | 6.83 | CS(=O)(=O)N1CCN([C@@H](CNS(=O)(=O)c2ccc(OCc3ccc(C#N)cc3)cc2)C(=O)NO)CC1 [Example 9, (S)-3-[4-(4-Cyanobenzyloxy)benzenesulfonylamino]-N-hydroxy-2-(4-methanesulfonylpiperazin-1-yl)propionamide] | – |
| – | – | – | 96 | 6.77 | CS(=O)(=O)N1CCN([C@@H](CNS(=O)(=O)c2ccc(OCc3ccnc4ccccc34)cc2)C(=O)NO)CC1 [Example 16, (S)-N-Hydroxy-2-(4-methanesulfonylpiperazin-1-yl)-3-[4-(quinolin-4-ylmethoxy)benzenesulfonylamino]propionamide] | – |
| 670 | 849 | 67 | 90 | 7.17 | Cc1cc(COc2ccc(S(=O)(=O)NC[C@@H](C(=O)NO)N3CCN(Cc4ccc(F)cc4)CC3)cc2)c2ccccc2n1 [Example 18, (S)-2-[4-(4-Fluorobenzyl)piperazin-1-yl]-N-hydroxy-3-[4-(2-methylquinolin-4-ylmethoxy)benzenesulfonylamino]propionamide] | IC50 (MMP9): > 10000 nM; IC50 (ADAM9): 9250 nM; pIC50 (ADAM10): < 5.00 |
| – | – | – | 93 | – | Cc1cc(COc2ccc(S(=O)(=O)NC[C@@H](C(=O)NO)N3CCN(C(=O)OCc4ccccc4)CC3)cc2)c2ccccc2n1 [Example 10, Benzyl 4-{(S)-1-hydroxycarbamoyl-2-[4-(2-methylquinolin-4-ylmethoxy)benzenesulfonylamino]ethyl}piperazine-1-carboxylate] | – |
| – | – | – | 93 | 7.62 | CS(=O)(=O)N1CCN([C@@H](CNS(=O)(=O)c2ccc(OCc3ccnc(-c4ccccc4)c3)cc2)C(=O)NO)CC1 [Example 11, (S)-N-Hydroxy-2-(4-methanesulfonylpiperazin-1-yl)-3-[4-(2-phenylpyridin-4-ylmethoxy)benzenesulfonylamino]propionamide] | – |
| – | – | – | 99 | 7.28 | CS(=O)(=O)N1CCN([C@@H](CNS(=O)(=O)c2ccc(OCc3cccc4ccccc34)cc2)C(=O)NO)CC1 [Example 6, (S)-N-Hydroxy-2-(4-methanesulfonylpiperazin-1-yl)-3-[4-(naphthalen-1-ylmethoxy)benzenesulfonylamino]propionamide] | – |
| 2220 | 1060 | 53 | 97 | 7.28 | Cc1cc(COc2ccc(S(=O)(=O)NC[C@@H](C(=O)NO)N3CCN(C(=O)C(C)C)CC3)cc2)c2ccccc2n1 [Example 23, (S)-N-hydroxy-2-(4-isobutyrylpiperazin-1-yl)-3-[4-(2-methylquinolin-4-ylmethoxy)-benzenesulfonylamino]propionamide] | – |
| – | – | – | 91 | 7.21 | Cc1cc(COc2ccc(S(=O)(=O)NC[C@@H](C(=O)NO)N3CCN(Cc4ccccc4)CC3)cc2)c2ccccc2n1 [Example 17, (S)-2-(4-Benzylpiperazin-1-yl)-N-hydroxy-3-[4-(2-methylquinolin-4-ylmethoxy)benzenesulfonylamino]propionamide] | – |
| – | – | – | 100 | 6.90 | CS(=O)(=O)N1CCN([C@@H](CNS(=O)(=O)c2ccc(OCc3cccc(C#N)c3)cc2)C(=O)NO)CC1 [Example 8, (S)-3-[4-(3-Cyanobenzyloxy)benzenesulfonylamino]-N-hydroxy-2-(4-methanesulfonylpiperazin-1-yl)propionamide] | – |
| – | – | – | 96 | 6.97 | Cc1cc(COc2ccc(S(=O)(=O)NC[C@@H](C(=O)NO)N3CCNCC3)cc2)c2ccccc2n1 [Example 13, (S)-N-Hydroxy-3-[4-(2-methylquinolin-4-ylmethoxy)benzenesulfonylamino]-2-piperazin-1-ylpropionamide] | – |

| Compound | IC50 (MMP1) [nM] | IC50 (MMP3) [nM] | IC50 (TACE enzyme [1]; [3]) [nM] | % TACE inhibition at 10 μM (TACE enzyme [1]; at 10 μM) [%] | pIC50 (TACE enzyme [1]; [4]) | further results |
| --- | --- | --- | --- | --- | --- | --- |
| CC1(C)SCCN(S(=O)(=O)c2ccc(OCC#CCO)cc2)[C@H]1C(=O)NO [Apratastat, reference compound] | 145 | 10 | – | – | – | IC50 (TACE enzyme [1]; read-out: IC50 (nM) TACE; TACE column of selectivity table): 5 nM; IC50 (MMP9): 82 nM; IC50 (ADAM9): 85 nM; selectivity for the TACE enzyme compared with certain MMPs (TACE enzyme [2]): not selective; pIC50 (ADAM10): 7.15 |
| Cc1cc(COc2ccc(S(=O)(=O)NC[C@@H](C(=O)NO)N3CCN(S(=O)(=O)CC(C)C)CC3)cc2)c2ccccc2n1 [Example 24, (S)-N-hydroxy-2-[4-(2-methylpropane-1-sulfonyl)piperazin-1-yl]-3-[4-(2-methylquinolin-4-ylmethoxy)benzenesulfonylamino]propionamide] | 2060 | 1880 | – | – | – | – |
| Cc1cc(COc2ccc(S(=O)(=O)NC[C@@H](C(=O)NO)N3CCN(S(C)(=O)=O)CC3)cc2)c2ccccc2n1.Cl [Example 14, (S)-N-Hydroxy-2-(4-methanesulfonylpiperazin-1-yl)-3-[4-(2-methylquinolin-4-ylmethoxy)benzenesulfonylamino]propionamide hydrochloride] | – | – | – | 98 | – | pIC50 (TACE enzyme [1]; read-out: IC50-TACE; enzymatic assay, substrate 40 μM; listed as ex14, hydrochloride): 7.19 |
| Cc1cc(COc2ccc(S(=O)(=O)NC[C@@H](C(=O)NO)N3CCN(S(C)(=O)=O)CC3)cc2)c2ccccc2n1 [Example 5, (S)-N-Hydroxy-2-(4-methanesulfonylpiperazin-1-yl)-3-[4-(2-methylquinolin-4-ylmethoxy)benzenesulfonylamino]propionamide] | 5100 | 3200 | 21 | 99 | 7.68 | – |
